Source: ChEMBL document CHEMBL3351686, “Facile and diastereoselective synthesis of 3,2'-spiropyrrolidine-oxindoles derivatives, their molecular docking and antiproliferative activities” (2015)
In brackets after ≈: the same amount, converted by molar mass.

Columns and labels:
Klebsiella pneumoniae [1] = experiment: Antibacterial activity against Klebsiella pneumoniae MTCC 109 assessed as zone of inhibition at 1 mg/disc after 24 hrs by disc diffusion method; format: functional
Proteus vulgaris [2] = experiment: Antibacterial activity against Proteus vulgaris MTCC 1771 assessed as zone of inhibition at 1 mg/disc after 24 hrs by disc diffusion method; format: functional
Micrococcus luteus [3] = experiment: Antibacterial activity against Micrococcus luteus MTCC 106 assessed as zone of inhibition at 1 mg/disc after 24 hrs by disc diffusion method; format: functional
Klebsiella aerogenes [4] = experiment: Antibacterial activity against Enterobacter aerogenes MTCC 111 assessed as zone of inhibition at 1 mg/disc after 24 hrs by disc diffusion method; format: functional
[5] = system: Staphylococcus epidermidis; experiment: Antibacterial activity against Staphylococcus epidermidis MTCC 3615 assessed as zone of inhibition at 1 mg/disc after 24 hrs by disc diffusion method; format: functional
Staphylococcus aureus [6] = experiment: Antibacterial activity against Staphylococcus aureus MTCC 96 assessed as zone of inhibition at 1 mg/disc after 24 hrs by disc diffusion method; format: functional
Staphylococcus aureus [7] = experiment: Antibacterial activity against methicillin-resistant Staphylococcus aureus assessed as zone of inhibition at 1 mg/disc after 24 hrs by disc diffusion method; format: functional
Malassezia pachydermatis [8] = experiment: Antifungal activity against Malassezia pachydermatis assessed as zone of inhibition at 1 mg/disc after 48 hrs by disc diffusion method; format: functional
Klebsiella pneumoniae [9] = experiment: Antibacterial activity against Klebsiella pneumoniae MTCC 109 assessed as inhibition of visual growth after 24 hrs; format: functional; details: MTCC 109, 24 h
Proteus vulgaris [10] = experiment: Antibacterial activity against Proteus vulgaris MTCC 1771 assessed as inhibition of visual growth after 24 hrs; format: functional; details: MTCC 1771, 24 h
Micrococcus luteus [11] = experiment: Antibacterial activity against Micrococcus luteus MTCC 106 assessed as inhibition of visual growth after 24 hrs; format: functional; details: MTCC 106, 24 h
Klebsiella aerogenes [12] = experiment: Antibacterial activity against Enterobacter aerogenes MTCC 111 assessed as inhibition of visual growth after 24 hrs; format: functional; details: MTCC 111, 24 h
[13] = system: Staphylococcus epidermidis; experiment: Antibacterial activity against Staphylococcus epidermidis MTCC 3615 assessed as inhibition of visual growth after 24 hrs; format: functional; details: MTCC 3615, 24 h
Staphylococcus aureus [14] = experiment: Antibacterial activity against Staphylococcus aureus MTCC 96 assessed as inhibition of visual growth after 24 hrs; format: functional; details: MTCC 96, 24 h
Staphylococcus aureus [15] = experiment: Antibacterial activity against methicillin-resistant Staphylococcus aureus assessed as inhibition of visual growth after 24 hrs; format: functional
Malassezia pachydermatis [16] = experiment: Antifungal activity against Malassezia pachydermatis assessed as inhibition of visual growth after 48 to 72 hrs; format: functional
Salmonella typhimurium [17] = experiment: Antibacterial activity against Salmonella typhimurium MTCC 1251 assessed as zone of inhibition at 1 mg/disc after 24 hrs by disc diffusion method; format: functional, Salmonella enterica subsp. enterica serovar Typhimurium
Shigella flexneri [18] = experiment: Antibacterial activity against Shigella flexneri MTCC 1457 assessed as zone of inhibition at 1 mg/disc after 24 hrs by disc diffusion method; format: functional
Salmonella typhimurium [19] = experiment: Antibacterial activity against Salmonella typhimurium MTCC 1251 assessed as inhibition of visual growth after 24 hrs; format: functional, Salmonella enterica subsp. enterica serovar Typhimurium; details: Salmonella enterica, MTCC 1251, 24 h
Candida albicans [20] = experiment: Antifungal activity against Candida albicans MTCC 227 assessed as inhibition of visual growth after 48 to 72 hrs; format: functional
Candida albicans [21] = experiment: Antifungal activity against Candida albicans MTCC 227 assessed as zone of inhibition at 1 mg/disc after 48 hrs by disc diffusion method; format: functional
Shigella flexneri [22] = experiment: Antibacterial activity against Shigella flexneri MTCC 1457 assessed as inhibition of visual growth after 24 hrs; format: functional; details: MTCC 1457, 24 h

Compound | inhibition zone (IZ) (Klebsiella pneumoniae [1]) | inhibition zone (IZ) (Proteus vulgaris [2]) | inhibition zone (IZ) (Micrococcus luteus [3]) | inhibition zone (IZ) (Klebsiella aerogenes [4]) | inhibition zone (IZ) [5] | inhibition zone (IZ) (Staphylococcus aureus [6]) | inhibition zone (IZ) (Staphylococcus aureus [7]) | inhibition zone (IZ) (Malassezia pachydermatis [8]) | MIC (Klebsiella pneumoniae [9]) | MIC (Proteus vulgaris [10]) | MIC (Micrococcus luteus [11]) | MIC (Klebsiella aerogenes [12]) | MIC [13] | MIC (Staphylococcus aureus [14]) | MIC (Staphylococcus aureus [15]) | MIC (Malassezia pachydermatis [16]) | inhibition zone (IZ) (Salmonella typhimurium [17]) | MIC (Candida albicans [20]) | inhibition zone (IZ) (Candida albicans [21]) | other results
CN1C[C@](C#N)(C(=O)c2c[nH]c3ccccc23)[C@@H](c2cn(-c3ccccc3)nc2-c2ccccc2)[C@@]12C(=O)Nc1ccccc12 | 9 mm | 8 mm | 10 mm | 9 mm | 8 mm | 9 mm | 8 mm | 9 mm | 500 µg/mL (≈ 849 µM) | 500 µg/mL (≈ 849 µM) | 250 µg/mL (≈ 425 µM) | 500 µg/mL (≈ 849 µM) | 500 µg/mL (≈ 849 µM) | 500 µg/mL (≈ 849 µM) | 500 µg/mL (≈ 849 µM) | 500 µg/mL (≈ 849 µM) | – | – | – | –
CCCCN1C(=O)[C@]2(c3ccccc31)[C@H](c1cn(-c3ccccc3)nc1-c1ccccc1)[C@@](C#N)(C(=O)c1c[nH]c3ccccc13)C1CCCN12 (some centres undefined) | 9 mm | 10 mm | 9 mm | 11 mm | 10 mm | 11 mm | 12 mm | – | 250 µg/mL (≈ 373 µM) | 250 µg/mL (≈ 373 µM) | 500 µg/mL (≈ 745 µM) | 500 µg/mL (≈ 745 µM) | 62.5 µg/mL (≈ 93.2 µM) | 125 µg/mL (≈ 186 µM) | 500 µg/mL (≈ 745 µM) | – | 8 mm | 500 µg/mL (≈ 745 µM) | – | inhibition zone (IZ) (Shigella flexneri [18]): 10 mm; MIC (Salmonella typhimurium [19]): 125 µg/mL (≈ 186 µM)
C=CCN1C(=O)[C@]2(c3ccccc31)[C@H](c1cn(-c3ccccc3)nc1-c1ccccc1)[C@@](C#N)(C(=O)c1c[nH]c3ccccc13)CN2C | 10 mm | 8 mm | 12 mm | 11 mm | 10 mm | 11 mm | 8 mm | 11 mm | 125 µg/mL (≈ 199 µM) | 500 µg/mL (≈ 795 µM) | 250 µg/mL (≈ 398 µM) | 250 µg/mL (≈ 398 µM) | 250 µg/mL (≈ 398 µM) | 250 µg/mL (≈ 398 µM) | 500 µg/mL (≈ 795 µM) | 250 µg/mL (≈ 398 µM) | – | – | – | –
CN1C(=O)[C@]2(c3ccccc31)[C@H](c1cn(-c3ccccc3)nc1-c1ccccc1)[C@@](C#N)(C(=O)c1c[nH]c3ccccc13)CN2C | 8 mm | 10 mm | 10 mm | 8 mm | 8 mm | – | – | 10 mm | 500 µg/mL (≈ 830 µM) | 250 µg/mL (≈ 415 µM) | 500 µg/mL (≈ 830 µM) | 500 µg/mL (≈ 830 µM) | 500 µg/mL (≈ 830 µM) | – | – | 500 µg/mL (≈ 830 µM) | – | 250 µg/mL (≈ 415 µM) | 11 mm | –
CCCCN1C(=O)[C@]2(c3ccccc31)[C@H](c1cn(-c3ccccc3)nc1-c1ccccc1)[C@@](C#N)(C(=O)c1c[nH]c3ccccc13)CN2C | 9 mm | 8 mm | 11 mm | 13 mm | 9 mm | – | – | 11 mm | 500 µg/mL (≈ 775 µM) | 500 µg/mL (≈ 775 µM) | 250 µg/mL (≈ 388 µM) | 125 µg/mL (≈ 194 µM) | 500 µg/mL (≈ 775 µM) | – | – | 250 µg/mL (≈ 388 µM) | – | 500 µg/mL (≈ 775 µM) | 9 mm | –
N#C[C@]1(C(=O)c2c[nH]c3ccccc23)C2CSCN2[C@]2(C(=O)N(Cc3ccccc3)c3ccccc32)[C@@H]1c1cn(-c2ccccc2)nc1-c1ccccc1 (some centres undefined) | – | 10 mm | – | – | – | – | – | – | 250 µg/mL (≈ 346 µM) | 500 µg/mL (≈ 692 µM) | 250 µg/mL (≈ 346 µM) | 250 µg/mL (≈ 346 µM) | 125 µg/mL (≈ 173 µM) | 62.5 µg/mL (≈ 86.5 µM) | 500 µg/mL (≈ 692 µM) | 500 µg/mL (≈ 692 µM) | – | 500 µg/mL (≈ 692 µM) | – | MIC (Salmonella typhimurium [19]): 250 µg/mL (≈ 346 µM); MIC (Shigella flexneri [22]): 500 µg/mL (≈ 692 µM)
C#CCN1C(=O)[C@]2(c3ccccc31)[C@H](c1cn(-c3ccccc3)nc1-c1ccccc1)[C@@](C#N)(C(=O)c1c[nH]c3ccccc13)CN2C | 10 mm | 8 mm | 8 mm | 10 mm | 10 mm | 9 mm | 8 mm | 8 mm | 250 µg/mL (≈ 399 µM) | 500 µg/mL (≈ 798 µM) | 500 µg/mL (≈ 798 µM) | 250 µg/mL (≈ 399 µM) | 250 µg/mL (≈ 399 µM) | 500 µg/mL (≈ 798 µM) | 500 µg/mL (≈ 798 µM) | 500 µg/mL (≈ 798 µM) | – | 125 µg/mL (≈ 199 µM) | 10 mm | –
CN1C[C@](C#N)(C(=O)c2c[nH]c3ccccc23)[C@@H](c2cn(-c3ccccc3)nc2-c2ccccc2)[C@@]12C(=O)Nc1ccc(Cl)cc12 | 9 mm | 11 mm | 10 mm | 9 mm | 8 mm | 11 mm | 12 mm | 9 mm | – | – | – | – | – | – | – | – | 8 mm | – | 11 mm | –
C#CCN1C(=O)[C@]2(c3ccccc31)[C@H](c1cn(-c3ccccc3)nc1-c1ccccc1)[C@@](C#N)(C(=O)c1c[nH]c3ccccc13)C1CSCN12 (some centres undefined) | – | 9 mm | 8 mm | – | – | – | 13 mm | – | – | – | – | – | – | – | – | – | – | – | – | inhibition zone (IZ) (Shigella flexneri [18]): 14 mm
CN1C[C@](C#N)(C(=O)c2c[nH]c3ccccc23)[C@@H](c2cn(-c3ccccc3)nc2-c2ccccc2)[C@@]12C(=O)Nc1ccc([N+](=O)[O-])cc12 | 17 mm | 14 mm | 18 mm | 15 mm | 15 mm | 19 mm | 18 mm | 8 mm | 500 µg/mL (≈ 789 µM) | 250 µg/mL (≈ 395 µM) | 250 µg/mL (≈ 395 µM) | 500 µg/mL (≈ 789 µM) | 500 µg/mL (≈ 789 µM) | 250 µg/mL (≈ 395 µM) | 125 µg/mL (≈ 197 µM) | 500 µg/mL (≈ 789 µM) | 12 mm | 250 µg/mL (≈ 395 µM) | 13 mm | inhibition zone (IZ) (Shigella flexneri [18]): 20 mm; MIC (Salmonella typhimurium [19]): 500 µg/mL (≈ 789 µM)
N#C[C@]1(C(=O)c2c[nH]c3ccccc23)C2CCCN2[C@]2(C(=O)N(Cc3ccccc3)c3ccccc32)[C@@H]1c1cn(-c2ccccc2)nc1-c1ccccc1 (some centres undefined) | 11 mm | 10 mm | 9 mm | 8 mm | 15 mm | 13 mm | 8 mm | – | – | – | – | – | – | – | – | – | 14 mm | – | 8 mm | –
CN1C[C@](C#N)(C(=O)c2c[nH]c3ccccc23)[C@@H](c2cn(-c3ccccc3)nc2-c2ccccc2)[C@@]12C(=O)N(Cc1ccccc1)c1ccccc12 | 11 mm | 10 mm | 9 mm | 10 mm | 8 mm | 9 mm | 8 mm | 9 mm | 250 µg/mL (≈ 368 µM) | 250 µg/mL (≈ 368 µM) | 500 µg/mL (≈ 737 µM) | 500 µg/mL (≈ 737 µM) | 500 µg/mL (≈ 737 µM) | 500 µg/mL (≈ 737 µM) | 500 µg/mL (≈ 737 µM) | 500 µg/mL (≈ 737 µM) | – | 500 µg/mL (≈ 737 µM) | 8 mm | –
N#C[C@]1(C(=O)c2c[nH]c3ccccc23)C2CSCN2[C@]2(C(=O)Nc3ccc([N+](=O)[O-])cc32)[C@@H]1c1cn(-c2ccccc2)nc1-c1ccccc1 (some centres undefined) | – | 8 mm | – | – | – | – | – | – | – | – | – | – | – | – | – | – | – | – | – | –
N#C[C@]1(C(=O)c2c[nH]c3ccccc23)C2CCCN2[C@]2(C(=O)Nc3ccc(Cl)cc32)[C@@H]1c1cn(-c2ccccc2)nc1-c1ccccc1 (some centres undefined) | 9 mm | 10 mm | 9 mm | 8 mm | 8 mm | 9 mm | 8 mm | 11 mm | – | – | – | – | – | – | – | – | 8 mm | – | 13 mm | inhibition zone (IZ) (Shigella flexneri [18]): 10 mm
CN1C(=O)[C@]2(c3ccccc31)[C@H](c1cn(-c3ccccc3)nc1-c1ccccc1)[C@@](C#N)(C(=O)c1c[nH]c3ccccc13)C1CSCN12 (some centres undefined) | – | – | – | – | – | – | – | – | 500 µg/mL (≈ 773 µM) | 500 µg/mL (≈ 773 µM) | 250 µg/mL (≈ 387 µM) | 500 µg/mL (≈ 773 µM) | 125 µg/mL (≈ 193 µM) | 500 µg/mL (≈ 773 µM) | – | – | – | – | – | MIC (Salmonella typhimurium [19]): 500 µg/mL (≈ 773 µM)
